Source: patent US6710030B1, “Contortrostain (CN) and methods for its use in preventing metastasis and other conditions” (University of Southern California, priority 1993, dated 2004)
“And” between values parts separate entries of the source, which are not always exact repeats. Identical values can stand only once.

What was measured:
MDA-MB-435 cells [1] = test: Binding of MDA-MB-435 cells to immobilized CN; type: cell-based, human; conditions: CN at 0.1 μg/well; read-out: IC50 for blocking binding of MDA-MB-435 cells to immobilized CN
Procedure: The effect of CN on binding of highly metastatic human breast cancer cells, MDA-MB-435 cell line, to ECM proteins was examined. Human fibronectin and vitronectin were immobilized in the wells of 96-well microtiter plates. […] In a variation of the above experiments, CN was immobilized. […] Referring to FIGS. 12 and 13, varying concentrations of GRGDSP (FIG. 12) or EDTA (FIG. 13) were used to inhibit binding of human mammary carcinoma cells to immobilized CN. CN was at 0.1 μg/well. The vertical line at each data point indicates the y-axis error bar. All experiments were conducted as three sets of triplicates for each data point.

T24 cells = test: Phosphotyrosine immunoblot, T24 cells; type: cell-based, human; conditions: pretreated 30 min, 10 nM contortrostatin
Procedure: (§1) Cell culture, preparation and stimulation—T24 cells were maintained in RPMI 1640 medium containing 5% fetal bovine serum, and MDA-MB-435 and 293 cells were maintained in Dulbecco's modified Eagle's medium with 10% serum at 37° C. in 5% CO2. Cells were washed with phosphate-buffered saline (PBS) and starved in the appropriate serum-free medium for 6 h at 37° C. Cells were detached by brief treatment with 0.05% trypsin/0.02% EDTA in PBS and collected by centrifugation, resuspended in soybean trypsin inhibitor (1 mg/ml in serum-free medium), and washed in 2% bovine serum albumin/serum-free medium. Cells were maintained in suspension for 1 h in 2% bovine serum albumin/serum-free medium at 37° C. with end-over-end agitation. Quiescent cells (3×10^6/ml) were treated with disintegrins or other reagents while in suspension, or were allowed to adhere to Matrigel (Becton Dickinson, Bedford, Mass.) diluted 1:100 with serum-free medium during treatment.
Lysate preparation and immunoprecipitation—Suspended and adherent cells were washed twice with cold PBS and lysed in cold lysis buffer (50 mM Tris, pH 8.0, 150 mM NaCl, 1% Nonidet P-40, 0.5% deoxycholate, 0.1% SDS, protease inhibitor cocktail, 1 mM sodium pyrophosphate, 1 mM sodium orthovanadate, 50 mM sodium fluoride). […]

MDA-MB-435 cells [2] = test: Phosphotyrosine immunoblot, MDA-MB-435 cells; type: cell-based, human
Procedure: as §1
Lysate preparation and immunoprecipitation—Suspended and adherent cells were washed twice with cold PBS and lysed in cold lysis buffer (50 mM Tris, pH 8.0, 150 mM NaCl, 1% Nonidet P-40, 0.5% deoxycholate, 0.1% SDS, protease inhibitor cocktail, 1 mM sodium pyrophosphate, 1 mM sodium orthovanadate, 50 mM sodium fluoride). After 10-15 min incubation on ice, insoluble material was removed by centrifugation at 14,000 RPM in a microcentrifuge for 15 min. Supernatants were collected and total protein concentrations standardized by the BCA protein assay (Pierce, Rockford, Ill.). Immunoprecipitation was carried out by incubating whole cell lysates (200 μg total protein) with 1.25 μg anti-FAK or anti-CAS mAb 4-6 h at 4° C. followed by 20 μl protein G-agarose overnight at 4° C. Immunoprecipitates were washed 4 times in lysis buffer without inhibitors and dissociated by adding SDS-PAGE sample buffer and boiling 5 min. Whole cell lysates (30 μg total protein) or immunoprecipitates were resolved by 7.5% SDS-polyacrylamide gel electrophoresis and transferred to nitrocellulose membranes. […]

[3] = tested on: canine carotid artery thrombosis model; test: Reoccluding canine carotid artery thrombosis model; type: in vivo
Text: The model of carotid artery thrombosis in the anesthetized canine described is a modification of one developed for the study of experimentally-induced coronary artery thrombosis [Romson, J. L. et al., Thromb. Res. 17:841 (1980)]. The experimental procedure results in the formation of a platelet rich intravascular thrombus at the site of an electrolytically-induced endothelial lesion in proximity to a distal arterial stenosis. The carotid artery is selected for the experimental model, thereby allowing one vessel to be used as a control and the other to be used after administration of the thrombolytic and antithrombotic therapy. APSAC (anisoylated plasminogen streptokinase activator complex) has been used as the thrombolytic agent successfully in this model. […] The lytic-antithrombotic combination of agents may then be administered to only one of the occluded vessels; this allows for an internal control and eliminates those animals that may not form thrombi due to causes unrelated to the vessel wall injury and subsequent occlusive thrombus formation, i.e., low circulating platelet counts, enhanced spontaneous thrombolysis, presence of heart worms, etc. Parameters which are recorded include repeated measures of: phasic and mean carotid artery blood flow velocity using an ultrasonic flow probe, time to thrombotic occlusion, time to recannulization, ex vivo platelet aggregation, prothrombin time, thrombin time, activated partial thromboplastin time, red cell and white cell counts, hematocrit, EKG profile and body temperature, before and after administration of APSAC or APSAC plus CN to separate groups of animals.
Conditioned male mongrel dogs (8-10 kg) have been used for all in vivo studies. Dogs are anesthetized with sodium pentobarbital, intubated and allowed to breath room air under positive pressure respiration. Arterial blood gasses and pH determinations are made every 45 minutes and appropriate adjustments made to maintain the blood gasses and arterial pH within normal limits. Both common carotid arteries and the right internal jugular vein are exposed. A catheter is inserted into the jugular vein for blood sampling and administration of the test drug. Arterial blood pressure is monitored from the cannulated femoral artery with the use of a blood pressure transducer. A Doppler flow probe is placed on each common carotid artery proximal to both the point of insertion of the intraarterial electrode and the mechanical constrictor. […] Blood flow velocity in the carotid vessels is monitored continuously. […]
Electrolytic injury to the intimal surface of each carotid vessel is accomplished with the use of an intravascular electrode. […] The current delivered to each vessel is monitored continuously and maintained at 300 μA. […]

platelets = conditions: measured by e.g. serotonin release from dense granules; cited from earlier work
[4] = tested on: acute thrombotic reocclusion; conditions: added to heparin plus tPA; cited from earlier work
[5] = tested on: coronary artery thrombosis; conditions: with recombinant tPA and heparin; cited from earlier work

Compound: O=C(O)CN(CCN(CC(=O)O)CC(=O)O)CC(=O)O [EDTA]
- IC50 (MDA-MB-435 cells [1]): 800 µM

Compound: Cc1ccc(-c2nn(C(C)(C)C)c3ncnc(N)c23)cc1 [PP1, reference compound]
- concentration for complete elimination of contortrostatin-induced signals (T24 cells): 100 µM
- concentration for complete inhibition of contortrostatin-induced tyrosine phosphorylation (MDA-MB-435 cells [2]; pretreated 30 min, 10 nM contortrostatin): 10 µM

Compound: anisoylated plasminogen streptokinase activator complex [APSAC]
- RCA Thrombus, weight of residual thrombus, individual dog ([3]; Dog # 1-6, listed as APSAC Control): 27.3 mg and 47.6 mg and 90.5 mg and 60.1 mg and 67.5 mg and 78.5 mg
- carotid artery patency after infusion ([3]; dog, in vivo): reoccluded and remained closed for the duration of the study
- RCA Thrombus, weight of residual thrombus, Mean ([3]; group mean): 61.9 mg
- Thrombus weight per kg (dog weight) ([3]; group mean): 4.1

Compound: applaggin
- platelet release (platelets): also inhibits platelet release

Compound: echistatin (QCESGPCCRNCKFLKEGTICKRARGDDMDDYCNGKTCDCPRNPHKGPAT) [reference compound]
- incidence of acute thrombotic reocclusion [4]: dramatic reductions in the incidence of acute thrombotic reocclusion
- effect on contortrostatin (10 nM)-induced tyrosine phosphorylation (MDA-MB-435 cells [2]; 1 μM, added simultaneously, 10 min): completely abrogated
- effect alone on tyrosine phosphorylation (MDA-MB-435 cells [2]; concentrations up to 1 μM): no effect on tyrosine phosphorylation

Compound: kistrin
- effective dose sufficient to prevent reocclusion [5]: 4 µg/kg/min
